# Source: patent publication US8772509B2, “Indole compounds as positive allosteric modulators of the muscarinic receptor” (Vanderbilt University, priority 2010, dated 2014)
# Target: T1, mAChR M1 (UniProt P08482)
# T1 sequence (P08482 1-460): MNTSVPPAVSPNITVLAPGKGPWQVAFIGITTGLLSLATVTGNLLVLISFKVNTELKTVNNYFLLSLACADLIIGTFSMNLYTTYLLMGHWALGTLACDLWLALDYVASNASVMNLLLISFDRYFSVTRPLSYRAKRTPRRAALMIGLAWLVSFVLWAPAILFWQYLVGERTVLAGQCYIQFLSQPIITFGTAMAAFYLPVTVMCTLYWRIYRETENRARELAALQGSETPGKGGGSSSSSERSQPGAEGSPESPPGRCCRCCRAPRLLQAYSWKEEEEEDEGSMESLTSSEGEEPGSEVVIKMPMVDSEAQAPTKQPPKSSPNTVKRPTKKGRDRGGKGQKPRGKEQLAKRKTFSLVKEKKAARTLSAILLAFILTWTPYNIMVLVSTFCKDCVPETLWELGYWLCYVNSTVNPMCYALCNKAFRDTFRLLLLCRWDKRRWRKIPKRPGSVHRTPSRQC
# Experiment: mAChR M1 cell-based functional assay (calcium mobilization, Fluo-4, FDSS)
# Settings: for Efficacy (% ACh maximum at 30 μM): maximal calcium flux response from curve fit or response at 30 μM compound, as % of the EC80 ACh response; for EC50: positive allosteric modulation of EC20 acetylcholine response, CHO-K1 cells expressing mAChR M1, read-out: Potency (EC50)
# Experimental: Chinese hamster ovary (CHO-K1) cells stably expressing rat (r)M1 were purchased from the American Type Culture Collection and cultured according to their indicated protocol. […] To make stable rM2, hM2, rM3, hM4, and rM4 cell lines for use in calcium mobilization assays, these cells also were stably transfected with a chimeric G-protein (Gqi5) (provided by B. R. Conklin, University of California, San Francisco) using Lipofectamine 2000. rM1, hM1, rM3, hM3, rM5, and hM5 cells were grown in Ham's F-12 medium containing 10% heat-inactivated fetal bovine serum (FBS), 20 mM HEPES, and 50 μg/mL G418 sulfate. rM2-Gqi5, hM2-Gqi5, and hM4-Gqi5 cells were grown in the same medium also containing 500 μg/mL Hygromycin B. Stable rM4-Gqi5 cells were grown in DMEM containing 10% heat-inactivated FBS, 20 mM HEPES, 400 μg/mL G418 sulfate, and 500 μg/mL Hygromycin B.
# For high throughput measurement of agonist-evoked increases in intracellular calcium, CHO-K1 cells stably expressing muscarinic receptors were plated in growth medium lacking G418 and hygromycin at 15,000 cells/20 μL/well in Greiner 384-well black-walled, tissue culture (TC)-treated, clear-bottom plates (VWR). Cells were incubated overnight at 37° C. and 5% CO2. […] Compound master plates were formatted in an 11 point CRC format (1:3 dilutions) in 100% DMSO with a starting concentration of 10 mM using the BRAVO liquid handler (Agilent). Test compound CRCs were then transferred to daughter plates (240 nL) using the Echo acoustic plate reformatter (Labcyte, Sunnyvale, Calif.) and then diluted into assay buffer (40 μL) to a 2× stock using a Thermo Fisher Combi (Thermo Fisher Scientific, Waltham, Mass.).
# Calcium flux was measured using the Functional Drug Screening System (FDSS) 6000 (Hamamatsu Corporation, Tokyo, Japan) as an increase in the fluorescent static ratio. Compounds were applied to cells (20 μL, 2×) using the automated system of the FDSS 6000 at 4 s into the 300 s protocol and the data were collected at 1 Hz. […] Agonist activity was analyzed as a concentration-dependent increase in calcium mobilization upon compound addition. Positive allosteric modulator activity was analyzed as a concentration-dependent increase in the EC20 acetylcholine response. Antagonist activity was analyzed as a concentration-dependent decrease in the EC80 acetylcholine response. Concentration-response curves were generated using a four-parameter logistical equation in XLfit curve fitting software (IDBS, Bridgewater, N.J.) for Excel (Microsoft, Redmond, Wash.) or Prism (GraphPad Software, Inc., San Diego, Calif.).
# The calcium mobilization assay was also used to determine “efficacy”. In the context of the assays carried out for the data in Table I, “efficacy” (% ACh at 30 μM) is defined as the maximal response in the calcium flux as determined by the sigmoidal curve fit of the concentration response curve, or in the absence of an acceptable curve fit, the response recorded at 30 μM test compound, stated as a percentage of the response elicited by a concentration of Ach that induces approximately 80% of a maximal (i.e. saturating) ACh response.
Structure (SMILES),Efficacy (% ACh maximum at 30 μM),EC50
"Cc1cc(NC(=O)CS(=O)(=O)c2cn(Cc3cccc(-c4cn[nH]c4)c3)c3ccccc23)no1 [compound 5, 2-((1-(3-(1H-pyrazol-4-yl)benzyl)-1H-indol-3-yl)sulfonyl)-N-(5-methylisoxazol-3-yl)acetamide]",90%,2.19 µM
"Cc1cc(NC(=O)CS(=O)(=O)c2cn(Cc3cccc(Cl)c3F)c3ccccc23)no1 [compound 26, 2-((1-(3-chloro-2-fluorobenzyl)-1H-indol-3-yl)sulfonyl)-N-(5-methylisoxazol-3-yl)acetamide]",56%,5.1 µM
"Cc1cc(NC(=O)CS(=O)(=O)c2cn(Cc3cccc(-c4ccc(N5CCOCC5)nc4)c3)c3ccccc23)no1 [compound 72, N-(5-methyl-1,2-oxazol-3-yl)-2-[1-({3-[6-(morpholin-4-yl)pyridin-3-yl]phenyl}methyl)-1H-indole-3-sulfonyl]acetamide]",–,> 10 µM
"Cc1cc(NC(=O)C(Cc2cccc(Cl)c2)S(=O)(=O)c2cn(Cc3cccc(Cl)c3)c3ccccc23)no1 (centres unmarked) [compound 69, 3-(3-chlorophenyl)-2-{1-[(3-chlorophenyl)methyl]-1H-indole-3-sulfonyl}-N-(5-methyl-1,2-oxazol-3-yl)propanamide]",–,> 10 µM
"Cc1cc(NC(=O)CS(=O)(=O)c2cn(Cc3ccc(Br)cc3F)c3ccccc23)no1 [compound 60, 2-{1-[(4-bromo-2-fluorophenyl)methyl]-1H-indole-3-sulfonyl}-N-(5-methyl-1,2-oxazol-3-yl)acetamide]",–,> 10 µM
"Cc1cc(NC(=O)C(Cc2ccccc2F)S(=O)(=O)c2cn(Cc3ccccc3F)c3ccccc23)no1 (centres unmarked) [compound 66, 3-(2-fluorophenyl)-2-{1-[(2-fluorophenyl)methyl]-1H-indole-3-sulfonyl}-N-(5-methyl-1,2-oxazol-3-yl)propanamide]",–,> 10 µM
"Cc1cc(NC(=O)CSc2cn(Cc3ccccc3Cl)c3ccccc23)no1 [compound 42, 2-({1-[(2-chlorophenyl)methyl]-1H-indol-3-yl}sulfanyl)-N-(5-methyl-1,2-oxazol-3-yl)acetamide]",–,> 10 µM
"COc1ccccc1Cn1cc(S(=O)(=O)CC(=O)Nc2cc(C)on2)c2ccccc21 [compound 47, 2-{1-[(2-methoxyphenyl)methyl]-1H-indole-3-sulfonyl}-N-(5-methyl-1,2-oxazol-3-yl)acetamide]",–,> 10 µM
"Cc1cc(NC(=O)CS(=O)(=O)c2cn(Cc3cccc(-c4ccc(Cl)nc4)c3)c3ccccc23)no1 [compound 64, 2-(1-{[3-(6-chloropyridin-3-yl)phenyl]methyl}-1H-indole-3-sulfonyl)-N-(5-methyl-1,2-oxazol-3-yl)acetamide]",–,> 10 µM
"Cc1cc(NC(=O)CS(=O)(=O)c2cn(Cc3cccc(Br)c3)c3ccccc23)no1 [compound 22, 2-((1-(3-bromobenzyl)-1H-indol-3-yl)sulfonyl)-N-(5-methylisoxazol-3-yl)acetamide]",91%,3.79 µM
"COc1ccc(Cn2cc(S(=O)(=O)CC(=O)Nc3cc(C)on3)c3ccccc32)cc1 [compound 46, 2-{1-[(4-methoxyphenyl)methyl]-1H-indole-3-sulfonyl}-N-(5-methyl-1,2-oxazol-3-yl)acetamide]",–,> 10 µM
"Cc1cc(NC(=O)CS(=O)(=O)c2cn(Cc3cc(Br)cc(Br)c3)c3ccccc23)no1 [compound 68, 2-{1-[(3,5-dibromophenyl)methyl]-1H-indole-3-sulfonyl}-N-(5-methyl-1,2-oxazol-3-yl)acetamide]",–,> 10 µM
"Cc1cc(NC(=O)CSc2cn(Cc3cccc(Br)c3)c3ccccc23)no1 [compound 51, 2-({1-[(3-bromphenyl)methyl]-1H-indol-3-yl}sulfanyl)-N-(5-methyl-1,2-oxazol-3-yl)acetamide]",–,> 10 µM
"Cc1cc(NC(=O)CS(=O)(=O)c2cn(Cc3cc(-c4cn[nH]c4)ccc3F)c3ccccc23)no1 [compound 15, 2-((1-(2-fluoro-5-(1H-pyrazol-4-yl)benzyl)-1H-indol-3-yl)sulfonyl)-N-(5-methylisoxazol-3-yl)acetamide]",96%,3.07 µM

# Now from value to molecule:
Efficacy (% ACh maximum at 30 μM),EC50,Structure (SMILES)
68%,2.4 µM,"Cc1cc(NC(=O)CS(=O)(=O)c2cn(Cc3cccc(-c4cccnc4)c3)c3cc(F)cc(F)c23)no1 [compound 8, 2-((4,6-difluoro-1-(3-(pyridin-3-yl)benzyl)-1H-indol-3-yl)sulfonyl)-N-(5-methylisoxazol-3-yl)acetamide]"
45%,> 10 µM,"O=C(CS(=O)(=O)c1cn(Cc2cccc(-c3cncnc3)c2)c2cc(F)cc(F)c12)Nc1ccccn1 [compound 36, 2-((4,6-difluoro-1-(3-(pyrimidin-5-yl)benzyl)-1H-indol-3-yl)sulfonyl)-N-(pyridin-2-yl)acetamide]"
103%,5.37 µM,"Cc1cc(NC(=O)CS(=O)(=O)c2cn(Cc3cccc(Br)c3)c3cc(F)cc(F)c23)no1 [compound 30, 2-((1-(3-bromobenzyl)-4,6-3-yl)sulfonyl)-N-(5-methylisoxazol-3-yl)acetamide]"
42%,3.4 µM,"Cc1noc(C)c1-c1cccc(Cn2cc(S(=O)(=O)CC(=O)Nc3ccccn3)c3c(F)cc(F)cc32)c1 [compound 17, 2-((1-(3-(3,5-dimethylisoxazol-4-yl)benzyl)-4,6-difluoro-1H-indol-3-yl)sulfonyl)-N-(pyridin-2-yl)acetamide]"
49%,> 10 µM,"O=C(CS(=O)(=O)c1cn(Cc2cccc(Br)c2)c2cc(F)cc(F)c12)Nc1cncs1 [compound 38, 2-((1-(3-bromobenzyl)-4,6-difluoro-1H-indol-3-yl)sulfonyl)-N-(thiazol-5-yl)acetamide]"
42%,> 10 µM,"O=C(CS(=O)(=O)c1cn(Cc2cccc(Br)c2)c2cc(F)cc(F)c12)Nc1cccnc1 [compound 35, 2-((1-(3-bromobenzyl)-4,6-difluoro-1H-indol-3-yl)sulfonyl)-N-(pyridin-3-yl)acetamide]"
42%,5.2 µM,"O=C(CS(=O)(=O)c1cn(Cc2cccc(-c3ccc(F)nc3)c2)c2cc(F)cc(F)c12)Nc1ccccn1 [compound 27, 2-((4,6-difluoro-1-(3-(6-fluoropyridin-3-yl)benzyl)-1H-indol-3-yl)sulfonyl)-N-(pyridin-2-yl)acetamide]"
72%,1.5 µM,"Cc1cc(NC(=O)CS(=O)(=O)c2cn(Cc3cccc(-n4ccnn4)c3)c3cc(F)cc(F)c23)no1 [compound 3, 2-((1-(3-(1H-1,2,3-triazol-1-yl)benzyl)-4,6-difluoro-1H-indol-3-yl)sulfonyl)-N-(5-methylisoxazol-3-yl)acetamide]"
42%,3.3 µM,"COc1ccc(-c2cccc(Cn3cc(S(=O)(=O)CC(=O)Nc4ccccn4)c4c(F)cc(F)cc43)c2)cn1 [compound 16, 2-((4,6-difluoro-1-(3-(6-methoxypyridin-3-yl)benzyl)-1H-indol-3-yl)sulfonyl)-N-(pyridin-2-yl)acetamide]"
59%,0.99 µM,"O=C(CS(=O)(=O)c1cn(Cc2ccccc2)c2cc(F)cc(F)c12)Nc1ccccn1 [compound 1, 2-((1-benzyl-4,6-difluoro-1H-indol-3-yl)sulfonyl)-N-(pyridin-2-yl)acetamide]"
